Several values for one entry are separate records, joined by “and”; a condition that tells them apart may be missing. Identical values can stand only once. Entries after “also recorded” stand apart in the source; their conditions may differ. Like-named read-outs stand apart in the source and are kept apart here.
Experiments:
[1] = target: T1, human CB2 (Homo sapiens, UniProt P34972); experiment: Radioligand binding to CB2, U698M cells expressing endogenous CB2
T1 construct: expressed in transfected cells; host or cells: CHO cells
T1 sequence (P34972 whole entry): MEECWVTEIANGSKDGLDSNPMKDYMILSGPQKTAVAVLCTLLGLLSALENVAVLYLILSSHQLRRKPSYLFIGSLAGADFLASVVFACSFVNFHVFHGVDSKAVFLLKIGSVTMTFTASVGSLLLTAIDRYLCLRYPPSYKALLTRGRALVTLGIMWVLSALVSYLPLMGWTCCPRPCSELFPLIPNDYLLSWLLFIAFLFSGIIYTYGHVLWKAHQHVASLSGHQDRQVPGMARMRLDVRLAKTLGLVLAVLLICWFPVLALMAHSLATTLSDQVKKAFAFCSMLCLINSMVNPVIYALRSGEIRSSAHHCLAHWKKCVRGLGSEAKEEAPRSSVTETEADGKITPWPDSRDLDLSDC

[2] = Solubility of drug substance; type: physicochemical
Description: (§1) For Phase I, film-coated tablets for oral administration containing 0.05, 0.75, 10, or 100 mg of RO6868847 drug substance were developed for clinical use. Three placebo film-coated tablets were formulated to match the active film-coated tablets in size and in appearance: one size to match the active 0.05 and 0.75 mg film-coated tablets and one size each to match the active 10 and 100 mg film-coated tablets.

[3] = Study BP40387 Part 1 (SAD) pharmacokinetics, healthy participants; type: in vivo, human; conditions: single and multiple dose, on average
[4] = target: T2, CB2 receptor on B-cells (Homo sapiens, UniProt P34972); experiment: CB2 receptor target engagement on B-cells in blood of participants of Study BP40387; type: in vivo
T2 construct: B cells show a low but robust surface expression of CB2; endogenous in cells; host or cells: B cells in human whole blood (healthy participants, diabetic patients)
T2 sequence (P34972 whole entry): as above
Description: In the Phase I single ascending dose (SAD) and multiple ascending dose (MAD) study (BP40387), CB2R-TE was measured in blood from healthy participants that received single and multiple 0.75-300 mg doses of RO6868847. Based on clinical RO6868847 pharmacokinetics (PK) and pharmacodynamics (PD; measured by CB2R-TE) data and accounting for the difference between healthy and diabetics subjects, the lower end of the 0.75 mg to 300 mg-dose range is expected to achieve approximately up to half-maximum CB2R-TE, whereas the higher end of that dose range is predicted to achieve maximum CB2R-TE.
In example 2, target engagement of RO6868847 was assessed on circulating B-cells from whole blood samples utilizing a newly developed exploratory flow cytometry assay to monitor RO6868847-induced CB2 receptor internalization on B-cells. […] Upon treatment discontinuation CB2 receptor surface expression returned to baseline approximately within 1 week. Target engagement appeared to reach a plateau at doses of 100 mg RO6868847 with only marginal increases at higher doses of RO6868847. In example 2, pro-inflammatory cytokine production was induced by ex vivo stimulation with LPS in freshly obtained whole blood samples, to measure downstream markers of RO6868847-mediated CB2 receptor internalization and explore its pharmacological profile. Serum levels of TNF-α, G-CSF, IL-1β, and […], of participants in Study BP40387 were assessed to investigate the changes of these cytokines in the presence of repeated dose administration of up to 300 mg RO6868847 once-daily for 14 days. […] It should be noted that the IL1-β analysis was negatively affected by a substantial proportion of baseline data, not being reportable (see FIG. 8), especially at the highest tested doses of 300 mg of RO6868847. Substantial variability in these measurements was observed. However, this was expected and no dedicated predefined statistical analysis was performed since cohort sizes were small for this exploratory assessment.

[5] = target: T2, CB2 receptor on B-cells; experiment: In vitro target engagement: CB2 surface expression on peripheral B cells in whole blood (flow cytometry); type: cell-based; conditions: for Emax: read-out: Mean Emax ± SD (%)
Text: To monitor target engagement by RO6868847 in humans, a flow cytometry assay was developed utilizing an in-house monoclonal anti-human CB2 antibody in combination with established blood cell markers (CD45, CD14, CD3, and CD19) (1078220). […] As with most GPCR agonists, RO6868847 is expected to trigger CB2 receptor internalization upon CB2 activation, resulting in decreased surface detection. In order to establish this measure as a surrogate target engagement biomarker, freshly isolated whole blood samples (n=9) from healthy participants were incubated in duplicates in vitro for 1 hour at 37° C. with eight different increasing concentrations of RO6868847 and were subsequently subjected to the flow cytometry assay (1078220).
The availability of this in vitro target engagement assay also enabled us to explore the target engagement—exposure response in blood samples obtained from patients with diabetic mellitus (Type 1 and Type 2) and healthy controls matched for age, gender and BMI (Table 6) (1097891). This population was selected as it is similar to the envisaged target patient population for the proof-of-concept Phase II trial, encompassing diabetic patients according to definition by the World Health Organization and/or the American Diabetes Association.

[6] = target: cynomolgus monkey CB2 (Macaca fascicularis, UniProt G7NVV5); experiment: Radioligand binding to CB2, CHO cells
Chain of cynomolgus monkey CB2 (G7NVV5 1-360): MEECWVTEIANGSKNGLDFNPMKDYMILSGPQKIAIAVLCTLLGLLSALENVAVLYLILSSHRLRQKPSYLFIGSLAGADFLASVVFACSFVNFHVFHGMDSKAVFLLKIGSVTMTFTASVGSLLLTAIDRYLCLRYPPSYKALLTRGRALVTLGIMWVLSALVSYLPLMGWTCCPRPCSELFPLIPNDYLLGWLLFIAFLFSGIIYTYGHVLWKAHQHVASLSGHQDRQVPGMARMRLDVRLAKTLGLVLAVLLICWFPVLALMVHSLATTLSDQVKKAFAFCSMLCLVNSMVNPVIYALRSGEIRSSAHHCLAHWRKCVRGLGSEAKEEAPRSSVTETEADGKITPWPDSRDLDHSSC

[7] = system: 78 additional receptors and ion channels; experiment: Radioligand binding assays on additional receptors and ion channels
[8] = system: laser-induced neovascularization; type: in vivo, rat
Description: Pharmacological studies were performed in vitro and in vivo to investigate the potency, selectivity and activity of RO6868847. Pharmacological effects were determined in vivo in two different diabetic animal models which include the streptozotocin (STZ)-induced rat Type 1 diabetes and genetic Type 2 diabetes mouse models as well as in two acute models with acute inflammatory stimulus (LPS-injections) or laser injury (CNV). Additional in vitro pharmacology studies were performed to explore the pharmacological effect of RO6868847 and the suitability of the assays as biomarkers of target engagement and pharmacodynamic effect (PD) in human whole blood obtained from either healthy volunteers or diabetic patients.
The diversity of the tested models (including acute challenge versus disease-modifying models) and the absence of a recommended nonclinical DME/DR model with proven clinical translatability presents a challenge for the estimation of pharmacologically active exposure in humans.
Exposure was derived from satellite animals or extrapolated from previous PK or PD studies in the same species.
Based on this integrated assessment, the pharmacologically active exposure range observed in rats spans 2 logs, with an upper bound (unbound AUC0-24 [S-epimer]=546 ng·hr/mL) corresponding to the full effect at 10 mg/kg in a rat STZ-induced Type 1 diabetes model and the lower bound (unbound AUC0-24 [S-epimer]=2.8 ng·hr/mL) corresponding to 50% decrease in disease marker (hypoerfluorescence area) in a laser-induced NV rat model.

[9] = Stability of drug substance; type: physicochemical
Description: as §1

**Q.** Which IC50 [1] does the source give for `Cn1nnnc1Cn1nnc2c(N3CC[C@H](O)C3)nc(C(C)(C)C)nc21` [RO6868847, (3S)-1-[5-tert-butyl-3-[(1-methyltetrazol-5-yl)methyl]triazolo[4,5-d]pyrimidin-7-yl]pyrrolidin-3-ol] here?
**A.** The IC50 was 92.2 ± 13.1 nM.

**Q.** What about the Ki [1] of the same compound?
**A.** Its Ki is 62.8 nM.

**Q.** What about the “solubility in aqueous solutions” value [2] of the same compound?
**A.** Its value is “slightly soluble”.

**Q.** And the “solubility in organic solvents” value [2]?
**A.** The value was “moderate to good solubility”.

**Q.** What about the “Renal excretion, share of the dose administered” value [3] of the same compound?
**A.** The value was “less than 5%”.

**Q.** And the “time for CB2 receptor surface expression to return to baseline” value ([4]; after treatment discontinuation)?
**A.** Its value is ≤ 1 week.

**Q.** And the “dose at which target engagement reaches a plateau” value ([4]; multiple dose)?
**A.** The value was 100 mg.

**Q.** And the “CB2 receptor target engagement on B-cells in blood” value ([4]; single and multiple oral doses up to 300 mg)?
**A.** The value was “reversible, dose-dependent and sustained; also recorded: dose-dependent, long-lasting, but reversible”.

**Q.** And the “Fold change vs HPs” value ([5]; DM)?
**A.** The value was 1.8x.

**Q.** And the Emax ([5]; DM, n = 8)?
**A.** The Emax was 56.2 ± 11.7%.

**Q.** What about the “Fold change vs HPs” value ([5]; Healthy Participants) of the same compound?
**A.** The value was 1.

**Q.** And the “CB2 surface expression on B-cells” value ([5]; Healthy Participants, n = 9)?
**A.** The value was “concentration-dependent reduction of CB2 surface expression on B-cells”.

**Q.** And the “Mean Emax ± SD (%)” value ([5]; Healthy Participants, n = 9)?
**A.** Its value is 55.0 ± 4.6 (n = 9) %.

**Q.** What about the Emax ([5]; Healthy Participants, n = 9) of the same compound?
**A.** Its Emax is 55 ± 4.6%.

**Q.** What about the “Fold change vs HPs” value ([5]; Matched Healthy) of the same compound?
**A.** Its value is 2.6 x.

**Q.** What about the Emax ([5]; Matched Healthy, n = 8) of the same compound?
**A.** The Emax was 55.7 ± 6.8%.

**Q.** And the IC50 ([5]; Mean IC50 (CB2 on B-cells) ± SD (nM), DM, n = 8, one outlier excluded)?
**A.** The IC50 was 172 ± 82 nM.

**Q.** What about the IC50 ([5]; Mean IC50 (CB2 on B-cells) ± SD (nM), Healthy Participants, n = 9, 1 hour at 37° C.) of the same compound?
**A.** The IC50 was 96.5 ± 27.1 nM.

**Q.** What about the IC50 ([5]; Mean IC50 (CB2 on B-cells) ± SD (nM), Matched Healthy, n = 8) of the same compound?
**A.** Its IC50 is 253 ± 206 nM.

**Q.** And the “fold higher concentration/exposure required for similar CB2R target engagement” value ([5]; diabetic and matched (elderly) healthy vs younger healthy participants)?
**A.** Its value is 2-3 fold and ~3 fold.

**Q.** And the “CB2 receptor internalization on the surface of B-cells” value ([5]; diabetic patients and matched healthy participants)?
**A.** Its value is “dose-dependent CB2 receptor internalization”.

**Q.** What about the IC50 ([5]; mean IC50 (TE), Healthy participants, 9 donors, converted) of the same compound?
**A.** Its IC50 is 96.5 nM.

**Q.** What about the IC50 [6] of the same compound?
**A.** The IC50 was 103 ± 17.2 nM.

**Q.** And the Ki ([6]; read-out: Ki ± SE)?
**A.** Its Ki is 66.8 nM.

**Q.** What about the “selectivity for CB2” value [7] of the same compound?
**A.** The value was “excellent selectivity for CB2”.

**Q.** What about the “decrease in disease marker (hyperfluorescence area)” value ([8]; rat, at unbound AUC0-24 2.8 ng·hr/mL) of the same compound?
**A.** Its value is 50%.

**Q.** And the “unbound AUC0-24 [S-epimer], lower bound of pharmacologically active exposure” value ([8]; rat, in vivo)?
**A.** The value was 2.8 ng·hr/mL.

**Q.** And the retinal hyperfluorescence ([8]; rodent laser injury model)?
**A.** Its retinal hyperfluorescence is “reduction of retinal hyperfluorescence”.

**Q.** And the “stability to temperature stress” value [9]?
**A.** Its value is “fairly stable”.

**Q.** And the stability to light ([9]; solid state and solution)?
**A.** The stability to light was “stable to light”.
